Assay results reported in ChEMBL document CHEMBL5143581, “Design, synthesis and molecular docking studies of imidazole and benzimidazole linked ethionamide derivatives as inhibitors of InhA and antituberculosis agents” (Bioorg Med Chem Lett, 2022).
Values after ≈ are worked out from the molar mass of the structure shown.

System: Mycobacterium tuberculosis
Assay: Antimycobacterial activity against InhA overexpressing Mycobacterium tuberculosis InhA-OE
Assay type: functional

Structure (SMILES): Cn1cc(C#N)nc1NC(=O)c1cc(C(N)=S)ccn1
- MIC: 2.53 µM (≈ 0.724 µg/mL)

Structure (SMILES): COc1ccc2c(c1)nc(NC(=O)c1cc(C(N)=S)ccn1)n2C
- MIC: 0.72 µM (≈ 0.246 µg/mL)

Structure (SMILES): NNC(=O)c1ccncc1 [ISONIAZID]
- MIC: 0.74 µM (≈ 0.101 µg/mL)

Structure (SMILES): Cn1c(NC(=O)c2cc(C(N)=S)ccn2)nc2cc(O)ccc21
- MIC: 0.54 µM (≈ 0.177 µg/mL)

Structure (SMILES): Cn1cc(O)nc1NC(=O)c1cc(C(N)=S)ccn1
- MIC: 1.99 µM (≈ 0.552 µg/mL)
